Data on eight compounds can be found in patent publication US5424290A, “Biologically active peptides and uses therefor” (Magainin Pharmaceuticals Inc., priority 1992, dated 1995).

SMILES strings stand for the structures. Residues, ends and D or L forms follow the SMILES beside them.

Common to all, as to assay type: cell-based
Assay [1] deals with P. aeruginosa strain ATCC 27853. The assay is described as follows: Minimal Inhibitory Concentration, microtiter broth dilution antibacterial assay. Particulars: P. aeruginosa ATCC 27853; Mueller Hinton broth; 16-20 hours at 37° C.; lowest concentration giving a clear well. From the text:
(§1) Table I, which follows, indicates the Minimal Inhibitory Concentration (MIC) in μg/ml of Peptides (SEQ ID NO:1) through (SEQ ID NO:4), (SEQ ID NO:6) through (SEQ ID NO:13), (SEQ ID NO:16), (SEQ ID NO:20), (SEQ ID NO:21) and (SEQ ID NO:23) against S. aureus strain ATCC 25923, P. aeruginosa strain ATCC 27853, E. coli strain 25922, and Candida albicans. The procedure for the antibacterial assay is based upon the guidelines of the National Committee for Clinical Laboratory Standards, Document M7-T2, Volume 8, No. 8, 1988. Stock solutions of the peptides hereinabove mentioned are prepared at a concentration of 512 μg/ml in sterile deionized distilled water and stored at […]. Each peptide is a C-terminal amide and may or may not be acetylated at the N-terminus. An acetyl group at the N-terminus is indicated by an X. The stock peptide solution is diluted in serial dilutions (1:2) down the wells of a microtiter plate so that the final concentrations of peptides in the wells are 0.25, 0.50, 1, 2, 4, 8, 16, 32, 64, 128, and 256 μg/ml. 1-5×10^5 CFUs/ml of either S. aureus ATCC 25923, E. coli ATCC 25922, P. aeruginosa ATCC 27853, or Candida albicans were added to the wells in full strength Mueller Hinton broth (BBL 11443) from a mid-log culture. The inoculum is standardized spectrophotometrically at 600 nm and is verified by colony counts. The plates are incubated for 16-20 hours at 37° C., and the minimal inhibitory concentration (MIC) for each peptide is determined. Minimal inhibitory concentration is defined as the lowest concentration of peptide which produces a clear well in the microtiter plate.
Background: Dilution methods test growth across graded concentrations, often in twofold steps.

A further assay concerns Candida albicans. The assay is described as follows: Minimal Inhibitory Concentration, microtiter broth dilution assay. Particulars: Mueller Hinton broth, 16-20 hours at 37° C., lowest concentration giving a clear well.
Source text: as §1

Assay [2] relates to S. aureus strain ATCC 25923. The assay is described as follows: Minimal Inhibitory Concentration, microtiter broth dilution antibacterial assay. Particulars: S. aureus ATCC 25923; Mueller Hinton broth; 16-20 hours at 37° C.; lowest concentration giving a clear well.
Source text: as §1

For the compound `CC[C@H](C)[C@H](NC(=O)CNC(=O)[C@H](CCCNC(=N)N)NC(=O)[C@@H](N)CCCNC(=N)N)C(=O)NCC(=O)N[C@@H](CCCCN)C(=O)N[C@@H](Cc1ccccc1)C(=O)N[C@@H](CC(C)C)C(=O)N[C@@H](CCCCN)C(=O)N[C@@H](CCCCN)C(=O)N[C@@H](C)C(=O)N[C@@H](CCCCN)C(=O)N[C@@H](CCCCN)C(=O)N[C@@H](Cc1ccccc1)C(=O)NCC(=O)N[C@@H](CCCCN)C(=O)N[C@@H](C)C(=O)N[C@@H](Cc1ccccc1)C(=O)N[C@H](C(=O)N[C@@H](CCCCN)C(=O)N[C@H](C(=O)N[C@@H](CC(C)C)C(=O)N[C@@H](CCCCN)C(=O)N[C@@H](CCCCN)C(=O)NCC(N)=O)[C@@H](C)CC)C(C)C` [(SEQ ID NO: 13)-NH2] (H-RRGIGKFLKKAKKFGKAFVKILKKG-NH2), the “Minimal Inhibitory Concentration P. aeruginosa” value in assay [1] came out at 4 µg/mL. Further, the “Minimal Inhibitory Concentration C. albicans” value with Candida albicans worked out at 64 µg/mL.
Consider `CC[C@H](C)[C@H](NC(=O)CNC(=O)[C@@H](N)CCSC)C(=O)NCC(=O)N[C@@H](CCCCN)C(=O)N[C@@H](Cc1ccccc1)C(=O)N[C@@H](CC(C)C)C(=O)N[C@@H](CCCCN)C(=O)N[C@@H](CCCCN)C(=O)N[C@@H](C)C(=O)N[C@@H](CCCCN)C(=O)N[C@@H](CCCCN)C(=O)N[C@@H](Cc1ccccc1)C(=O)NCC(=O)N[C@@H](CCCCN)C(=O)N[C@@H](C)C(=O)N[C@@H](Cc1ccccc1)C(=O)N[C@H](C(=O)N[C@@H](CCCCN)C(=O)N[C@H](C(=O)N[C@@H](CC(C)C)C(=O)N[C@@H](CCCCN)C(=O)N[C@@H](CCCCN)C(N)=O)[C@@H](C)CC)C(C)C` [(SEQ ID NO: 11)-NH2] (H-MGIGKFLKKAKKFGKAFVKILKK-NH2), for which the “Minimal Inhibitory Concentration S. aureus” value in assay [2] turned out to be 64 µg/mL. Also, in the assay with Candida albicans, the “Minimal Inhibitory Concentration C. albicans” value was determined as 64 µg/mL.
Take `CC[C@H](C)[C@H](NC(=O)CN)C(=O)NCC(=O)N[C@@H](CCCCN)C(=O)N[C@@H](Cc1ccccc1)C(=O)N[C@@H](CC(C)C)C(=O)N[C@@H](CCCCN)C(=O)N[C@@H](CCCCN)C(=O)N[C@@H](C)C(=O)N[C@@H](CCCCN)C(=O)N[C@@H](CCCCN)C(=O)N[C@@H](Cc1ccccc1)C(=O)NCC(=O)N[C@@H](CCCCN)C(=O)N[C@@H](C)C(=O)N[C@@H](Cc1ccccc1)C(=O)N[C@H](C(=O)N[C@@H](CCCCN)C(=O)N[C@H](C(=O)N[C@@H](CC(C)C)C(=O)N[C@@H](CCCCN)C(=O)N[C@@H](CCCCN)C(=O)N[C@@H](CCCNC(=N)N)C(N)=O)[C@@H](C)CC)C(C)C` [(SEQ ID NO: 8)-NH2] (H-GIGKFLKKAKKFGKAFVKILKKR-NH2): the “Minimal Inhibitory Concentration S. aureus” value in assay [2] stood at 16 µg/mL. The “Minimal Inhibitory Concentration P. aeruginosa” value in assay [1] worked out at 4 µg/mL. For the same compound, the “Minimal Inhibitory Concentration C. albicans” value in the assay with Candida albicans worked out at 64 µg/mL.
Take `CC[C@H](C)[C@H](N)C(=O)NCC(=O)N[C@@H](CCCCN)C(=O)N[C@@H](Cc1ccccc1)C(=O)N[C@@H](CC(C)C)C(=O)N[C@@H](CCCCN)C(=O)N[C@@H](CCCCN)C(=O)N[C@@H](C)C(=O)N[C@@H](CCCCN)C(=O)N[C@@H](CCCCN)C(=O)N[C@@H](Cc1ccccc1)C(=O)NCC(=O)N[C@@H](CCCCN)C(=O)N[C@@H](CCCCN)C(=O)N[C@@H](Cc1ccccc1)C(=O)N[C@@H](CCCCN)C(=O)N[C@@H](CCCCN)C(=O)N[C@@H](CCC(=O)O)C(=O)N[C@H](C(=O)N[C@@H](CCCCN)C(=O)N[C@@H](CCCCN)C(N)=O)[C@@H](C)CC` [(SEQ ID NO: 3)-NH2] (H-IGKFLKKAKKFGKKFKKEIKK-NH2): in assay [2], the “Minimal Inhibitory Concentration S. aureus” value stood at 32 µg/mL. Moreover, the “Minimal Inhibitory Concentration P. aeruginosa” value in assay [1] amounted to 16 µg/mL.
The matching figures for `CC[C@H](C)[C@H](NC(=O)CN)C(=O)NCC(=O)N[C@@H](CCCCN)C(=O)N[C@@H](Cc1ccccc1)C(=O)N[C@@H](CC(C)C)C(=O)N[C@@H](CCCCN)C(=O)N[C@@H](CCCCN)C(=O)N[C@@H](C)C(=O)N[C@@H](CCCCN)C(=O)N[C@@H](CCCCN)C(=O)N[C@@H](Cc1ccccc1)C(=O)NCC(=O)N[C@@H](CCCCN)C(=O)N[C@@H](C)C(=O)N[C@@H](Cc1ccccc1)C(=O)N[C@H](C(=O)N[C@@H](CCCCN)C(=O)N[C@H](C(=O)N[C@@H](CC(C)C)C(=O)N[C@@H](CCCCN)C(=O)N[C@@H](CCCCN)C(N)=O)[C@@H](C)CC)[C@@H](C)CC` [(SEQ ID NO: 19)-NH2] (H-GIGKFLKKAKKFGKAFIKILKK-NH2): 8 µg/mL and 8 µg/mL.
In the case of `CC[C@H](C)[C@H](NC(=O)CNC(=O)[C@H](CCCNC(=N)N)NC(=O)[C@@H](N)CCCNC(=N)N)C(=O)NCC(=O)N[C@@H](CCCCN)C(=O)N[C@@H](Cc1ccccc1)C(=O)N[C@@H](CC(C)C)C(=O)N[C@@H](CCCCN)C(=O)N[C@@H](CCCCN)C(=O)N[C@@H](C)C(=O)N[C@@H](CCCCN)C(=O)N[C@@H](CCCCN)C(=O)N[C@@H](Cc1ccccc1)C(=O)NCC(=O)N[C@@H](CCCCN)C(=O)N[C@@H](C)C(=O)N[C@@H](Cc1ccccc1)C(=O)N[C@H](C(=O)N[C@@H](CCCCN)C(=O)N[C@H](C(=O)N[C@@H](CC(C)C)C(=O)N[C@@H](CCCCN)C(=O)N[C@@H](CCCCN)C(N)=O)[C@@H](C)CC)C(C)C` [(SEQ ID NO: 12)-NH2] (H-RRGIGKFLKKAKKFGKAFVKILKK-NH2), the “Minimal Inhibitory Concentration P. aeruginosa” value in assay [1] amounted to 32 µg/mL. Further, in the assay on Candida albicans, the “Minimal Inhibitory Concentration C. albicans” value came out at 128 µg/mL.
As for `CC[C@H](C)[C@H](NC(=O)CN)C(=O)NCC(=O)N[C@@H](CCCCN)C(=O)N[C@H](C(=O)N[C@@H](CC(C)C)C(=O)N[C@@H](CCCCN)C(=O)N[C@@H](CCCCN)C(=O)N[C@@H](C)C(=O)N[C@@H](CCCCN)C(=O)N[C@@H](CCCCN)C(=O)N[C@H](C(=O)NCC(=O)N[C@@H](CCCCN)C(=O)N[C@@H](C)C(=O)N[C@H](C(=O)N[C@H](C(=O)N[C@@H](CCCCN)C(=O)N[C@H](C(=O)N[C@@H](CC(C)C)C(=O)N[C@@H](CCCCN)C(=O)N[C@@H](CCCCN)C(N)=O)[C@@H](C)CC)C(C)C)[C@@H](C)CC)[C@@H](C)CC)[C@@H](C)CC` [(SEQ ID NO: 4)-NH2] (H-GIGKILKKAKKIGKAIVKILKK-NH2), the “Minimal Inhibitory Concentration S. aureus” value in assay [2] was found to be 16 µg/mL. In addition, the “Minimal Inhibitory Concentration P. aeruginosa” value in assay [1] was found to be 4 µg/mL. Also, the “Minimal Inhibitory Concentration C. albicans” value in the assay on Candida albicans turned out to be 64 µg/mL.
On to `CC[C@H](C)[C@H](NC(=O)CN)C(=O)NCC(=O)N[C@@H](CCCCN)C(=O)N[C@@H](Cc1ccccc1)C(=O)N[C@@H](CC(C)C)C(=O)N[C@@H](CCCCN)C(=O)N[C@@H](CCCCN)C(=O)N[C@@H](C)C(=O)N[C@@H](CCCCN)C(=O)N[C@@H](CCCCN)C(=O)N[C@@H](Cc1ccccc1)C(=O)NCC(=O)N[C@@H](CCCCN)C(=O)N[C@@H](C)C(=O)N[C@@H](Cc1ccccc1)C(=O)N[C@H](C(=O)N[C@@H](CCCCN)C(=O)N[C@H](C(=O)N[C@@H](CC(C)C)C(=O)N[C@@H](CCCCN)C(=O)N[C@@H](CCCCN)C(=O)N[C@@H](CC(N)=O)C(N)=O)[C@@H](C)CC)C(C)C` [(SEQ ID NO: 9)-NH2] (H-GIGKFLKKAKKFGKAFVKILKKN-NH2), for which the “Minimal Inhibitory Concentration S. aureus” value in assay [2] came to 64 µg/mL. Also, the “Minimal Inhibitory Concentration P. aeruginosa” value in assay [1] worked out at 8 µg/mL.
